Measured values taken from PubChem BioAssay AID1963444 (Molecular Pharmacology Branch, DTP, NCI, 2024).
Several values for one entry are separate records, joined by “and”; a condition that tells them apart may be missing. Equal entries are not always repeated.

System: HSSY-II complex spheroid growth, percent test/control
Assay: Anticancer human tumor HSSY-II cell line growth inhibition [Asc];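 further: spheroids exposed to drug for 7 days before reading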
Settings: for viability, T/C: stronger effect = lower value
Protocol: Multicellular complex tumor spheroid response to apoptosis pathway targeting inhibitors Alrizomadlin, Pelcitoclax, and Dasminapant in combination with a variety of drugs and investigational agents in selected tumor cell lines
The MDM2 inhibitor alrizomadlin, the Bcl-2/Bcl-xL inhibitor pelcitoclax, and the IAPs inhibitor dasminapant were evaluated both individually and in combination with standard of care and investigational anticancer small molecules within a complex spheroid model of solid tumors. . Complex spheroids include a stromal component modeled by human endothelial cells (HUVEC) and fibroblasts modeled by human mesenchymal stem cells (MSCs). The concentration ranges selected for each drug and investigational agent were based upon clinically achievable concentrations if the clinical Cmax of the agent was known.
Compounds. The drugs and investigational agents: alrizomadlin (APG-115; NSC831270), pelcitoclax (APG-1252; NSC835773), dasminapant (APG-1387;NSC834197), TAK-243 (NSC785004), copanlisib (NSC809693), olaparib (NSC753686), talazoparib (NSC767125), cobimetinib (NSC 768068), eltanexor (KPT-8602, NSC 794443), abemaciclib (NSC 768073), sotorasib (NSC818433), adagrasib (NSC 831453), MRTX-1133 (NSC 836407), Iadademestat (ORY1001, NSC 806812), and RMC-4630 (NSC839698), were obtained from the NCI Developmental Therapeutics Program Chemical Repository. The FDA-approved anticancer drug set is available from the Developmental Therapeutics Program at https://dtp.cancer.gov/organization/dscb/obtaining/available plates.htm. […] The stock solutions were prepared in dimethyl sulfoxide (DMSO, Sigma-Aldrich, St. Louis, MO, cat. D2650) at 800-fold the tested concentration and stored at -70 degrees C prior to their use. All drugs and investigational agents were tested over a range starting from a high concentration at or near the clinical Cmax and decreasing in half-log increments. If the clinical Cmax for an agent had not been determined, the highest concentration tested was 10 microM.
The patient-derived cancer (PDC) cell lines include five colon adenocarcinomas: 186277-243-T-J2-PDC, 616215-338-R-J1-PDC, 439559-082-T-J2-PDC, 463943-066-T-J2-PDC, and 519858-162-T-J1-PDC; three pancreatic carcinomas: 323965-272-R-J2-PDC, 521955-158-R6-J3-PDC, and 521955-158-R2-J5-PDC; two uterine sarcomas: 327498-152-R-J2-PDC and 993429-296-R-J1-PDC; two rhabdomyosarcomas: 755483-174-R-J1-PDC and 772245-204-R-J1-PDC; two soft tissue sarcomas: 126254-015-R-J1-PDC and 494315-158-R-J1-PDC; two malignant fibrous histiocytomas: 317291-083-R-J1-PDC and 596521-263-R-J1-PDC; two breast carcinomas: 171881-019-R-J1-PDC and 885512-296-R-J2-PDC; and one ovarian carcinoma: 6556581-035-R-J-PDC were obtained from the NCI PDMR, (https://pdmr.cancer.gov). The established cell lines HSSY-2 synovial sarcoma (RRID:CVCL 8719), SYO-1 synovial sarcoma (RRID:CVCL_7146), MPNST malignant peripheral neural sheath tumor were obtained from the Sloan Kettering Institute. The following established cell lines were purchased from the American Type Culture Collection (ATCC, Manassas, VA), Sor the received from the NCI repository:, PANC-1 pancreatic carcinoma (CRL-1469, RRID:CVCL_0480), OVCAR-5 ovarian carcinoma (RRID:CVCL_1628), OVCAR-8 ovarian carcinoma (RRID:CVCL_1629), , MCF-7 breast carcinoma (CRL-12584, RRID:CVCL_0031), MDA-MB-231 breast carcinoma (CRL-12532, RRID:CVCL_0062), NCI-H1876 small cell lung carcinoma (CRL-5902, RRID:CVCL_1503), NCI-H510A small cell lung carcinoma (HTB-184, RRID:CVCL_1565), NCI-H1417 (CRL-5869, RRID:CVCL_1469), and NCI-H196 small cell lung carcinoma (CRL-5823, RRID:CVCL_1509). Dr. Peter Houghton (Greehey Children's Cancer Research Institute, University of Texas Health Science Center, San Antonio, TX) provided Rh-18 rhabdomyosarcoma (RRID:CVCL_1659). Pooled donor human umbilical vein endothelial cells (HUVEC, Lonza, cat. CC-2519) and human mesenchymal stem cells (hMSC, Lonza, cat. PT-2501) were purchased from Lonza (Walkersville, MD).
Cell Culture. […]

[1] = curve of first compound, second compound 0.01 µM
[2] = curve of first compound, second compound 0.0316 µM
[3] = curve of first compound, second compound 0.1 µM
[4] = curve of first compound, second compound 0.316 µM
[5] = curve of first compound, second compound 1 µM
[6] = second compound 0.01 µM, first compound 0.0316 µM
[7] = second compound 0.01 µM, first compound 0.1 µM
[8] = second compound 0.01 µM, first compound 0.316 µM
[9] = second compound 0.01 µM, first compound 1 µM
[10] = second compound 0.0316 µM, first compound 0.0316 µM
[11] = second compound 0.0316 µM, first compound 0.1 µM
[12] = second compound 0.0316 µM, first compound 0.316 µM
[13] = second compound 0.0316 µM, first compound 1 µM
[14] = second compound 0.1 µM, first compound 0.0316 µM
[15] = second compound 0.1 µM, first compound 0.1 µM
[16] = second compound 0.1 µM, first compound 0.316 µM
[17] = second compound 0.1 µM, first compound 1 µM
[18] = second compound 0.316 µM, first compound 0.0316 µM
[19] = second compound 0.316 µM, first compound 0.1 µM
[20] = second compound 0.316 µM, first compound 0.316 µM
[21] = second compound 0.316 µM, first compound 1 µM
[22] = second compound 1 µM, first compound 0.0316 µM
[23] = second compound 1 µM, first compound 0.1 µM
[24] = second compound 1 µM, first compound 0.316 µM
[25] = second compound 1 µM, first compound 1 µM

SMILES	IC50 [1]	IC50 [2]	IC50 [3]	IC50 [4]	IC50 [5]	viability, T/C [6]	viability, T/C [7]	viability, T/C [8]	viability, T/C [9]	viability, T/C [10]	viability, T/C [11]	viability, T/C [12]	viability, T/C [13]	viability, T/C [14]	viability, T/C [15]	viability, T/C [16]	viability, T/C [17]	viability, T/C [18]	viability, T/C [19]	viability, T/C [20]	also measured
C=CC(=O)N1CCN(c2nc(=O)n(-c3c(C)ccnc3C(C)C)c3nc(-c4c(O)cccc4F)c(F)cc23)C(C)C1 (configuration not stated) + CNC(C)C(=O)NC1CN(S(=O)(=O)c2cccc(S(=O)(=O)N3CCC4CCC(C(=O)NC(c5ccccc5)c5ccccc5)N4C(=O)C(NC(=O)C(C)NC)C3)c2)CCC2CCC(C(=O)NC(c3ccccc3)c3ccccc3)N2C1=O	7.99 µM	5.85 µM	5.98 µM	7.42 µM	6.39 µM	97.5%	108%	107%	101%	92.9%	104%	91.7%	89.8%	86.9%	91.8%	90.6%	87.5%	89.5%	98.9%	101%	viability, T/C (second compound 0.01 µM, first compound 3.16 µM): 94.3%; viability, T/C (second compound 0.01 µM, first compound 10 µM): 39.1%; viability, T/C (second compound 0.0316 µM, first compound 3.16 µM): 72%; viability, T/C (second compound 0.0316 µM, first compound 10 µM): 30.9%; viability, T/C (second compound 0.1 µM, first compound 3.16 µM): 68.4%; viability, T/C (second compound 0.1 µM, first compound 10 µM): 35.1%; viability, T/C [21]: 92.2%; viability, T/C (second compound 0.316 µM, first compound 3.16 µM): 89.1%; viability, T/C (second compound 0.316 µM, first compound 10 µM): 36.2%; viability, T/C [22]: 82.7%; viability, T/C [23]: 87.6%; viability, T/C [24]: 88.5%; viability, T/C [25]: 73.5%; viability, T/C (second compound 1 µM, first compound 3.16 µM): 89%; viability, T/C (second compound 1 µM, first compound 10 µM): 28.1%
O=C(c1cc(Cc2n[nH]c(=O)c3ccccc23)ccc1F)N1CCN(C(=O)C2CC2)CC1																					viability, T/C (compound 0.0316 µM): 87.4% and 98% and 105%; viability, T/C (compound 0.1 µM): 90.4% and 103% and 91.2%; viability, T/C (compound 0.316 µM): 86.4% and 63% and 94.2%; viability, T/C (compound 1 µM): 78.5% and 87.6% and 98.6%; viability, T/C (compound 3.16 µM): 46.7% and 54.1% and 59.5%; viability, T/C (compound 10 µM): 15.5% and 12.1% and 11.8%; IC50 (curve of compound): 2.81 µM and 3.51 µM and 3.97 µM
O=C(c1ccc(F)c(F)c1Nc1ccc(I)cc1F)N1CC(O)([C@@H]2CCCCN2)C1 + CNC(C)C(=O)NC1CN(S(=O)(=O)c2cccc(S(=O)(=O)N3CCC4CCC(C(=O)NC(c5ccccc5)c5ccccc5)N4C(=O)C(NC(=O)C(C)NC)C3)c2)CCC2CCC(C(=O)NC(c3ccccc3)c3ccccc3)N2C1=O	0.587 µM	0.516 µM	0.472 µM	0.416 µM	0.515 µM	112%	108%	82.2%	22.4%	99.2%	107%	69%	24.4%	98.9%	99.8%	65.8%	20.6%	83.1%	111%	59.2%	viability, T/C (second compound 0.01 µM, first compound 0.00316 µM): 76.6%; viability, T/C (second compound 0.01 µM, first compound 0.01 µM): 87.8%; viability, T/C (second compound 0.0316 µM, first compound 0.00316 µM): 95.7%; viability, T/C (second compound 0.0316 µM, first compound 0.01 µM): 99.8%; viability, T/C (second compound 0.1 µM, first compound 0.00316 µM): 93%; viability, T/C (second compound 0.1 µM, first compound 0.01 µM): 74.1%; viability, T/C (second compound 0.316 µM, first compound 0.00316 µM): 98.9%; viability, T/C (second compound 0.316 µM, first compound 0.01 µM): 100%; viability, T/C [21]: 20.4%; viability, T/C (second compound 1 µM, first compound 0.00316 µM): 98.3%; viability, T/C (second compound 1 µM, first compound 0.01 µM): 114%; viability, T/C [22]: 99.7%; viability, T/C [23]: 95.1%; viability, T/C [24]: 70.7%; viability, T/C [25]: 21.9%
